{
  "source": "patent US20130252988A1",
  "about": "“COMPOSITIONS AND METHODS FOR TREATING MYELOFIBROSIS” (TARGEGEN, INC., priority 2010, published 2013)",
  "origin": "cited, not measured here",
  "details": "Kantarjian H M et al., Blood 110:3540-3546, 2007; cited from earlier work",
  "data": [
    {"smiles": "Cc1cn(-c2cc(NC(=O)c3ccc(C)c(Nc4nccc(-c5cccnc5)n4)c3)cc(C(F)(F)F)c2)cn1", "note": "[nilotinib]", "values": [
      {"measurement": "Asymptomatic hyperamylasemia, sometimes with hyperlipasemia, as toxicity", "result": "observed"}
    ]}
  ]
}
